# Results from PMC11220795 (Molecular Pharmaceutics, 2024).
# Test: Drug solubility in medium-chain triglycerides (MCT, Miglyol 812 N); SORESOS 96-well assay, miniaturized shake-flask or literature
# Details: decadic logarithm of molar solubility in MCTs (Miglyol 812 N), 24 h at room temperature; no literature source given
# Procedure: The excipient complies with the quality specifications of the European Pharmacopoeia. The solvents used for the ultra-performance liquid chromatography (UPLC) quantification were of UPLC grade.
# (b) employing a miniaturized version of the shake-flask method in 2 mL glass vials,[33] or (c) collecting data from the literature.[12],[34] Each of the employed assays involved residual solid-state screenings by powder X-ray diffraction to identify potential solid-state changes during solubility screenings.
row,log10 S [M],Compound
1,-0.63 M,CC(C)(Oc1ccc(Cl)cc1)C(=O)O [clofibric acid]
2,-2.45 M,CC[C@H](C)C(=O)O[C@H]1C[C@@H](C)C=C2C=C[C@H](C)[C@H](CC[C@@H]3C[C@@H](O)CC(=O)O3)[C@H]21 [lovastatin]
3,-1.56 M,Cn1nnnc1Cn1nnc2c(N3CC[C@@H](O)C3)nc(C(C)(C)C)nc21 [RO6868847]
4,-1.78 M,COc1cc(C(F)(F)F)cc(SC)c1C(=O)N[C@@]1(c2ccccc2)C[C@@H](OC)CN(C)C1 [RO5469299]
5,-3.73 M,COc1ccc(Cl)cc1S(=O)(=O)N1CCOc2c(C)cc(C(=O)Nc3ccc(CC(=O)O)cc3)cc21 [RO5114497]
6,-2.53 M,O=C(Nc1ccc(Cl)cn1)[C@@H]1CN(CC(F)F)C[C@H]1C(=O)Nc1ccc(-n2ccccc2=O)cc1F [RO4934067]
7,-1.45 M,C[C@@H](c1ncncc1F)[C@](O)(Cn1cncn1)c1ccc(F)cc1F [voriconazole]
8,-2.38 M,COc1cc(C(=O)Nc2nc3c(OC)ccc([C@H]4COCCO4)c3s2)ccn1 [RO4545823]
9,-1.40 M,CN(C(=O)c1ncc(C#Cc2cccc(F)c2)cn1)C(C)(C)C [RO6807794]
10,-3.55 M,CC[C@@H]([C@H](C)O)n1ncn(-c2ccc(N3CCN(c4ccc(OC[C@@H]5CO[C@@](Cn6cncn6)(c6ccc(F)cc6F)C5)cc4)CC3)cc2)c1=O [posaconazole]
11,-3.47 M,CC1(C)CCC(C)(C)c2cc(Cn3cccn3)c(/C=C/c3ccc(C(=O)O)cc3)cc21 [palovarotene]
12,-2.35 M,Cc1ccc(Nc2cncnc2)c(C(=O)Nc2ccn(C)n2)n1 [RO5012841]
13,-2.41 M,COc1ccc(N2CCOCC2)c2sc(NC(=O)c3ccc(F)cc3)nc12 [RO0716689]
14,-0.41 M,CCC(CC)CC1(C(=O)Nc2ccccc2SC(=O)C(C)C)CCCCC1 [RO4607381]
15,-4.07 M,O=C(CCc1ccc(OC(F)(F)F)cc1)N1C[C@@H]2CN(C(=O)c3ccc4[nH]nnc4c3)C[C@@H]2C1 [RO6888975]
16,-3.40 M,COc1ccc(N2CCOCC2)c2sc(NC(=O)N3CCC(C)(O)CC3)nc12 [RO4494351]
17,-1.71 M,COc1ccc(-c2ccccc2)c2sc(NC(=O)c3ccc(F)cc3)nc12 [RO0691911]
18,-3.06 M,CCCS(=O)(=O)Nc1ccc(F)c(C(=O)c2c[nH]c3ncc(-c4ccc(Cl)cc4)cc23)c1F [RO5185426]
19,-2.05 M,CC(C)(C)c1ccc(C(O)CCCN2CCC(C(O)(c3ccccc3)c3ccccc3)CC2)cc1 (stereo not shown) [terfenadine]

row,Compound,log10 S [M]
1,FC(F)c1ncn2c1Cn1ncnc1-c1cc(Br)ccc1-2 [RO4938581],-2.98 M
2,OCCOc1ccc(/C(=C(/CCCl)c2ccccc2)c2ccccc2)cc1 [ospemifene],-1.47 M

# Test: not given
# Details: decadic logarithm of molar solubility in MCTs; ref Alsenz, J. and Kuentz, M., 2019; cited from earlier work
row,Compound,log10 S [M]
1,CCCN(CCC)S(=O)(=O)c1ccc(C(=O)O)cc1 [probenecid],-2.16 M
2,CC(C)Cc1ccc(C(C)C(=O)O)cc1 (stereo not shown) [ibuprofen],-0.82 M
3,O=C1[C@H](CC[C@H](O)c2ccc(F)cc2)[C@@H](c2ccc(O)cc2)N1c1ccc(F)cc1 [ezetimibe],-2.16 M
4,CN1C(C(=O)Nc2ccccn2)=C(O)c2ccccc2S1(=O)=O [piroxicam],-2.25 M
5,CC(=O)CC(c1ccccc1)c1c(O)c2ccccc2oc1=O (stereo not shown) [warfarin],-2.14 M
6,CCCCNC(=O)NS(=O)(=O)c1ccc(C)cc1 [tolbutamide],-1.85 M
7,Clc1ccccc1C(c1ccccc1)(c1ccccc1)n1ccnc1 [clotrimazole],-1.45 M
8,reserpine,-3.06 M
9,CCc1nc(N)nc(N)c1-c1ccc(Cl)cc1 [pyrimethamine],-2.65 M
10,C[C@@H]1C[C@H]2[C@@H]3CCC4=CC(=O)C=C[C@]4(C)[C@@]3(F)[C@@H](O)C[C@]2(C)[C@@]1(O)C(=O)CO [dexamethasone],-3.21 M
11,CCCSc1ccc2nc(NC(=O)OC)[nH]c2c1 [albendazole],-2.91 M
12,CC(C)(C)NCC(O)COc1cccc2c1CC(O)C(O)C2 (stereo not shown) [nadolol],-3.23 M
13,CC(=O)OCC(=O)[C@@]1(O)CC[C@H]2[C@@H]3CCC4=CC(=O)CC[C@]4(C)[C@H]3[C@@H](O)C[C@@]21C [hydrocortisone acetate],-3.54 M
14,CC(=O)[C@H]1CC[C@H]2[C@@H]3CCC4=CC(=O)CC[C@]4(C)[C@H]3CC[C@]12C [progesterone],-1.05 M
15,Cc1ccccc1-c1cc(N2CCOCC2)ncc1N(C)C(=O)C(C)(C)c1cc(C(F)(F)F)cc(C(F)(F)F)c1 [befetupitant],-1.08 M
16,COc1ccc2c(c1)c(CC(=O)OCC(=O)O)c(C)n2C(=O)c1ccc(Cl)cc1 [acemetacin],-2.33 M
17,COc1cc2c(c(OC)c1OC)-c1ccc(OC)c(=O)cc1[C@@H](NC(C)=O)CC2 [colchicine],-2.34 M
18,O=C(O)c1cc(/N=N/c2ccc(S(=O)(=O)Nc3ccccn3)cc2)ccc1O [sulfasalazine],-4.24 M
19,O=C1NC(=O)C(c2ccccc2)(c2ccccc2)N1 [phenytoin],-3.00 M
20,O=C(CCCN1CCC(O)(c2ccc(Cl)cc2)CC1)c1ccc(F)cc1 [haloperidol],-2.38 M
21,O=C1C(CC[S+]([O-])c2ccccc2)C(=O)N(c2ccccc2)N1c1ccccc1 (stereo not shown) [sulfinpyrazone],-2.33 M
22,CC(=O)Oc1ccc(C(c2ccc(OC(C)=O)cc2)c2ccccn2)cc1 [bisacodyl],-2.22 M
23,Cc1cccc(Nc2ccccc2C(=O)O)c1C [mefenamic acid],-1.97 M
24,COc1ccc2c(c1)c(CC(=O)O)c(C)n2C(=O)c1ccc(Cl)cc1 [indomethacin],-2.01 M

# Same assay, conditions: decadic logarithm of molar solubility in MCTs; ref Alskär, L.C., Porter, C.J. and Bergström, C.A., 2016; cited from earlier work
row,Compound,log10 S [M]
1,COC(=O)Nc1nc2ccc(Sc3ccccc3)cc2[nH]1 [fenbendazole],-3.20 M
2,CCOc1nc2cccc(C(=O)O)c2n1Cc1ccc(-c2ccccc2-c2nnn[nH]2)cc1 [candesartan],-4.64 M
3,COc1ccc2cc([C@H](C)C(=O)O)ccc2c1 [naproxen],-1.38 M
4,OCCN(CCO)c1nc(N2CCCCC2)c2nc(N(CCO)CCO)nc(N3CCCCC3)c2n1 [dipyridamole],-3.56 M
5,CC(C)(Oc1ccc(C(=O)c2ccc(Cl)cc2)cc1)C(=O)O [fenofibric acid],-2.21 M
6,O=C(O)c1cc(-c2ccc(F)cc2F)ccc1O [diflunisal],-1.18 M
7,C#C[C@]1(O)CC[C@H]2[C@@H]3CCc4cc(O)ccc4[C@H]3CC[C@@]21C [ethinylestradiol],-0.83 M
8,COc1cc(C)c(/C=C/C(C)=C/C=C/C(C)=C/C(=O)O)c(C)c1C [acitretin],-3.13 M
9,O=C(Nc1ccc([N+](=O)[O-])cc1Cl)c1cc(Cl)ccc1O [niclosamide],-2.06 M

# Same assay, conditions: decadic logarithm of molar solubility in MCTs; ref Wyttenbach, N., Niederquell, A., Ectors, P. and Kuentz, M., 2022; cited from earlier work
row,Compound,log10 S [M]
1,Cc1ccc(-c2cc(C(F)(F)F)nn2-c2ccc(S(N)(=O)=O)cc2)cc1 [celecoxib],-1.66 M
2,O=c1[nH]c2ccccc2n1C1CCN(CCCC(c2ccc(F)cc2)c2ccc(F)cc2)CC1 [pimozide],-2.82 M
3,NC(=O)N1c2ccccc2C=Cc2ccccc21 [carbamazepine],-2.09 M
4,c1ccc(-c2ccc(C(c3ccccc3)n3ccnc3)cc2)cc1 (stereo not shown) [bifonazole],-1.97 M
